Measured values from US9895344B2, “Treating various disorders with 7,8-dihydroxyflavone and derivatives thereof” (EMORY UNIVERSITY, priority 2008, dated 2018).

How the values were obtained:
TrkA [1] = target: T1, TrkA (Mus musculus, UniProt Q3UFB7); assay: TrkA phosphorylation in mouse brain after intraperitoneal injection; type: in vivo, mice; design: from tissue; host or cells: mouse brain; details: 5 mg/kg intraperitoneally, 2 hours after injection, FIG. 12
Protocol: To assess whether 7,8-dihydroxyflavone can provoke TrkB activation in the brain, mice were intraperitoneally injected with a dose of 5 mg/kg and analyzed at various time points. […] Further, as shown in FIG. 12 (right panel), the protein and mRNA levels of the neurotrophic receptors were not altered after treatment with 7,8-dihydroxyflavone.

TrkB = TrkB (Rattus norvegicus, UniProt Q63604); assay: TrkB activation in primary cortical neurons (p-TrkB Y817 immunoblotting); type: cell-based; design: endogenous in cells; host or cells: primary cortical neurons; details: FIG. 27 right
Sequence of TrkB (Q63604 32-821): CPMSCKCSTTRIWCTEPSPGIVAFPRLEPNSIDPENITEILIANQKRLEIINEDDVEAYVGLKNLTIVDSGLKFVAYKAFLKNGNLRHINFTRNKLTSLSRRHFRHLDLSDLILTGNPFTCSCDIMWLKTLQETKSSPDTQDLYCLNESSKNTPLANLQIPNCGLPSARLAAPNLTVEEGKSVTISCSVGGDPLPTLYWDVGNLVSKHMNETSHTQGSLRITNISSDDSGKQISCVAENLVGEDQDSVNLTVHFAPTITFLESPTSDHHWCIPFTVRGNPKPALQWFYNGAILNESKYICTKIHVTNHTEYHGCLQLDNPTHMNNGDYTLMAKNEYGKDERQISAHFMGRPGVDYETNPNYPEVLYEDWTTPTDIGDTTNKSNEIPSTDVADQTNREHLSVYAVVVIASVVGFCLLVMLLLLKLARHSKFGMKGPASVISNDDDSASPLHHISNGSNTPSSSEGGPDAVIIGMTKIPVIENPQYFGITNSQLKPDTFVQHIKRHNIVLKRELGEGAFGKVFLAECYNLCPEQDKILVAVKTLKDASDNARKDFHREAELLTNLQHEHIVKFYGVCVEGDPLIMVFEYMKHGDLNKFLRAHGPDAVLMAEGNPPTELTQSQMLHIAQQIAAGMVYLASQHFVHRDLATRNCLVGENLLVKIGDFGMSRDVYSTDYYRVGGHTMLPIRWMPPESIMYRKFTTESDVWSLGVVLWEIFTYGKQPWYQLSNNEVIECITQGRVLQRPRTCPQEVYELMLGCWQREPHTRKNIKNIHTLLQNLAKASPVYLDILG
Protocol: Primary cultured rat cortical neurons were prepared as follows. E17 rat pups were decapitated and cortex was extirpated, cross chopped, and suspended by pipetting for separation in 5% fetal calf serum (FCS), 5% horse serum (HS) DMEM. The cell suspension was then centrifuged at 250×g for 5 minutes. This operation was repeated again. Cells were seeded into polyethyleneimine-coated 10 cm^2 dishes and 12-well plates including coated-coverslips and incubated at 37° C. in 5% CO2/95% air. After 3 hours, the culture medium was changed to Neurobasal containing B-27 supplement (Invitrogen; Carlsbad, Calif.) and incubated for 4 days. For maintenance, half of the culture medium was changed to fresh Neurobasal/B27 every 4 days. After 1 week, the dished cultured neurons were ready for use.
To compare the TrkB activation by the synthetic compounds of Examples 9 and 10 (see FIG. 26), primary cortical cultures were prepared. The cortical neurons were treated with 500 nM of various compounds for 30 min and collected the cell lysates. […] Replacing the H-bond acceptor O atom with hydrogen bond donor NH reduced its stimulatory effect. […] In comparison, 7,8-DHF provoked TrkB activation with the minimal concentration of 100 nM (FIG. 27, right panels).

[2] = system: ECD and ICD of TrkA receptor; assay: In vitro binding assay: TrkA ECD and ICD
TrkA [3] = target: T1, TrkA; assay: Trk activation in cortical neurons from wild-type and TrkB-null pups: TrkA; type: cell-based, mice; design: endogenous in cells; host or cells: primary cortical neurons of mouse pups; details: FIG. 21
Protocol: To determine whether 7,8-dihydroxyflavone can selectively activate TrkB receptor and prevent neuronal cell death, cortical neurons were prepared from homozygous pups of TrkB+/−mice, which were mated to the same genotype. […] Glutamate nonselectively elicited weak TrkA phosphorylation in both wild-type and TrkB-null neurons (FIG. 21, row 3).

TrkA [4] = target: T2, TrkA (Homo sapiens, UniProt P04629); assay: Tyrosine phosphorylation of Trk receptors in transfected HEK293 cells: TrkA; type: cell-based; details: FIG. 15
T2 construct: expressed in transfected cells; host or cells: HEK293
T2 sequence (P04629 33-796, species assumed): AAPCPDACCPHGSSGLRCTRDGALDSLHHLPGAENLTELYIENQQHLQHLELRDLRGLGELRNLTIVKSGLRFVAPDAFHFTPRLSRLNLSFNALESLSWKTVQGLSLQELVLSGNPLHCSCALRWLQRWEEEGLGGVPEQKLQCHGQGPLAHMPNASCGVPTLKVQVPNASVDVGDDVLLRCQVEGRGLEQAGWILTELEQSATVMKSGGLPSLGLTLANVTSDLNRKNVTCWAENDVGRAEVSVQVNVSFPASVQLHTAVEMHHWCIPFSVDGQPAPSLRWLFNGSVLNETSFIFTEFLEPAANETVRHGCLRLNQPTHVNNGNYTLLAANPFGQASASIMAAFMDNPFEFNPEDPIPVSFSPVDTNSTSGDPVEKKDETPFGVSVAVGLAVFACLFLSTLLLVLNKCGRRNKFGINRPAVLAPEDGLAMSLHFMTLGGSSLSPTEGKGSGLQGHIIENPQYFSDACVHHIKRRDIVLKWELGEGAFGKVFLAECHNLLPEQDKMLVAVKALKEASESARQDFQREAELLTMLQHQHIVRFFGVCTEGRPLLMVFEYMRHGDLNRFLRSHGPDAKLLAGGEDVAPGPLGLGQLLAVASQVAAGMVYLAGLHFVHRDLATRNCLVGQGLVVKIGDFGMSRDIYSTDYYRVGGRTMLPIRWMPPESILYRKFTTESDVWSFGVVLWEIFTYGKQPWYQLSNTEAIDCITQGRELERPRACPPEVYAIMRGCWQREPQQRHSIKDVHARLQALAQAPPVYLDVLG
Text: To determine if 7,8-dihydroxyflavone promoted tyrosine phosphorylation of the other Trk receptors, HEK293 cells were transfected with various Trk receptors, followed by treatment with 7,8-dihydroxyflavone.

[5] = Toxicity after 3-week chronic treatment (organ pathology, complete blood count); type: in vivo, mice
Protocol: To explore whether 4′-dimethylamino-7,8-dihydroxyflavone and 7,8-dihydroxyflavone have any intolerable toxicity, the major organs from mice treated with both compounds at 5 mg/kg/day for 3 weeks were analyzed.

T48 cells = assay: Fluorescent apoptotic assay (Staurosporine, MR(DEVD)2) in TrkB stably transfected T48 cells; type: cell-based, murine
Text: Create and test reporter cell lines. In order to identify small molecules that mimic BDNF and activate TrkB, TrkB stably transfected murine cell lines were created. The T48 and T62 cell lines were created by transfecting basal forebrain SN56 cells, which express negligible TrkB, with a TrkB expression construct. […] To test resistance to apoptosis, SN56 cells and the T48 cell line were either untreated or treated with BDNF, and then subjected to an apoptotic assay. Briefly, the cells were treated with 0.75 μM Staurosporine for 9 hours, and 1 hour before the termination of the experiment, the cells were treated with 10 μM MR (DEVD)2. The cells were then fixed with 4% paraformaldehyde for 15 minutes, washed with phosphate buffered saline (PBS), and incubated with Hoechst 33342 for 10 minutes. Cover slides were washed with PBS, mounted, and the cells were examined using a fluorescent microscope to see which cells turned red upon caspase cleavage.
Cell-based screen. To screen a large number of chemicals, a cell-based apoptic assay was developed using a cell permeable fluorescent dye, MR (DEVD)2, which turns red upon caspase cleavage in apoptotic cells. SN56 and T48 cells were plated at 10,000 cells per well in multiple 96-well plates and exposed to 2000 biologically active compounds from the Spectrum Collection Library for 30 minutes at a concentration of 10 μM in DMSO. Following exposure to the compounds, the cells were subjected to the developed fluorescent apoptotic assay described above (method schematically shown in FIG. 2).
In the initial screen, 5 of the 66 positive compounds were flavone derivatives or similar compounds. […] To compare the apoptosis inhibitory activity, the flavone derivatives were preincubated with SN56 and T48 cells, and subsequently were subjected to the fluorescent apoptotic assay as described above. […] Additionally, the effective concentration at which 50% (EC50) of the cells are protected from apoptosis was determined for 7,8-dihydroxyflavone, Cianidanol, Pinocembrin and Diosmetin.

immobility time = assay: Forced swim test in TrkB F616A knockin mice with saline or 1NMPP1 pretreatment; type: in vivo; details: drugs for five days, FIG. 36
Protocol: To assess whether the behavior responses by 7,8-DHF and its derivative are mediated by TrkB receptor, TrkB F616A knockin mice were utilized. The transgenic mice were subjected to saline or 1NMPP1 pretreatment (25 μM), respectively (drinking water provided one day prior to drug injection and maintained throughout whole experiment). The control and/or drugs were provided for five days. […] (Data presented in FIGS. 34, 35, and 36 as mean±SEM; *p<0.05 against vehicle, #P<0.01 against vehicle and ***P<0.0001 against vehicle, student t-test.)

immobility = assay: Forced swim test after 21 days oral treatment; type: in vivo, C57BL/6J mice; details: 5 mg/kg, oral injection, FIG. 34
Protocol: Adult male mice (2-3 months old) were randomly submitted to a forced swim test without a pre-swim. Saline, 4′-DMA-7,8-DHF and 7,8-DHF (5 mg/kg) were orally injected for 21 days. The mice were allowed to adapt to the test room for 2 days. The mice were placed in a clear glass cylinder with a diameter of 16 cm, half-filled with clear water at 24° C.
To explore whether 4′-DMA-7,8-DHF and 7,8-DHF have any antidepressant effect, a forced swim test (6 minutes, immobility recorded in the last 4 minutes) was conducted after chronic treatment of male C57BL/6J mice (8 mice/group) for 21 days via oral injection.

T1 sequence (Q3UFB7 34-799): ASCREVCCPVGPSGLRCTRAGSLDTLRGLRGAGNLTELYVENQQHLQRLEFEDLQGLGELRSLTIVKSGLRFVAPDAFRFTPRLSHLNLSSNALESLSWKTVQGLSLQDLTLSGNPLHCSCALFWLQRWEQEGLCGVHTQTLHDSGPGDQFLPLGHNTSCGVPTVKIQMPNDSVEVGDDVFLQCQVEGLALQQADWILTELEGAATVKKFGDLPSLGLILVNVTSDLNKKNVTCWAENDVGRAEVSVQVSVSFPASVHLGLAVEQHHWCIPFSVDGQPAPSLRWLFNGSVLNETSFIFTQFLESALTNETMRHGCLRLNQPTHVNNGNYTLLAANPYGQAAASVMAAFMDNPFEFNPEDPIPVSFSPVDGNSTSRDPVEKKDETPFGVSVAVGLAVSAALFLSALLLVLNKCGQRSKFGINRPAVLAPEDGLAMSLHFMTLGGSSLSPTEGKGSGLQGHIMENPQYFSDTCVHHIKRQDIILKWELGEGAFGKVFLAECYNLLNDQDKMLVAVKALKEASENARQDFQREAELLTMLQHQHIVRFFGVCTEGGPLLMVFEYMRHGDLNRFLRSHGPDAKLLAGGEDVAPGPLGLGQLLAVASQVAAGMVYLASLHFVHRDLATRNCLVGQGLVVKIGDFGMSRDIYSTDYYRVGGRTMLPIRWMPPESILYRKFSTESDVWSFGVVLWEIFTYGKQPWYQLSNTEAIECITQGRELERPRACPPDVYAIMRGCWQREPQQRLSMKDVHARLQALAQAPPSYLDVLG

## O=c1cc(-c2ccccc2)oc2c(O)c(O)ccc12 [7,8-dihydroxyflavone]
TrkA [1]
  TrkA phosphorylation in the brain: not TrkA
TrkB
  minimal concentration triggering TrkB activation (titration assay): 100 nM
[2]
  binding to TrkA ECD or ICD: Neither the ECD nor ICD of TrkA receptor was capable of binding
TrkA [3]
  TrkA activation: not TrkA receptor
TrkA [4]
  tyrosine phosphorylation of TrkA receptor: not
[5]; 5 mg/kg/day dose for 3-week chronic treatment
  toxicity to the mice: neither compound was toxic
[5]; mouse, in vivo
  complete blood count (CBC) versus control saline-treated mice: no significant difference
T48 cells; Mus musculus, read-out: effective concentration at which 50% (EC50) of the cells are protected from apoptosis
  EC50: 35 nM
T48 cells; Staurosporine-induced apoptosis, FIG. 1B and FIG. 4
  suppression of apoptosis in T48 cell line: strongly suppressed apoptosis
Immobility time; 1NMPP1 25 μM in drinking water
  immobility time after 1NMPP1 treatment: neither 4′-DMA-7,8-DHF nor 7,8-DHF had any significant effect
Immobility time
  immobility time, saline group: substantially reduced the immobility time
immobility
  swimming immobility: significantly decreased
